Measurements published in US20150272184A1, “NARINGENIN AND SALTS THEREOF FOR SWEETNESS ENHANCEMENT” (International Flavors & Fragrances Inc., priority 2014, published 2015).
Read-outs that look alike come from different tables or passages of the source.

How the values were obtained:
[1] = Paired comparison of sweetness, Reb A solutions in water with or without naringenin; type: in vivo, human
Excerpt: The term “sweetness” or “sweetness intensity” is understood to mean the relative strength of sweet sensation as observed or experienced by an individual, e.g., a human, or a degree or amount of sweetness detected by a taster, for example on the scale from 0 (none) to 8 (very strong) used in sensory evaluations according to the procedure described in American Society for Testing Materials, Special Technical Publication-434: “Manual on Sensory Testing Methods,” ASTM International, West Conshohocken, Pa. (1996). Sucrose solutions of different concentrations were prepared in water. A naringenin (AuNutra Industries Inc) solution was also prepared in water (100 ppm) and used in all of the following examples. Each test group contained 26 paired samples. In each paired samples, a sucrose solution of a higher concentration was compared for sweetness against that of a lower concentration but in combination with naringenin. The results were represented by the numbers of samples rated as sweeter in paired comparisons, which were then statistically analyzed using binomial distribution for two-sided comparisons at 95% confidence level. The evaluation is reported in the following: Reb A solutions of different concentrations were prepared in water and the sweetness enhancement by naringenin was similarly evaluated.

[2] = cited from earlier work
[3] = Paired comparison of sweetness, sucrose solutions in water with or without naringenin; type: in vivo, human; conditions: for Number of Samples Rated Sweeter: 26 paired samples
Excerpt: The term “sweetness” or “sweetness intensity” is understood to mean the relative strength of sweet sensation as observed or experienced by an individual, e.g., a human, or a degree or amount of sweetness detected by a taster, for example on the scale from 0 (none) to 8 (very strong) used in sensory evaluations according to the procedure described in American Society for Testing Materials, Special Technical Publication-434: “Manual on Sensory Testing Methods,” ASTM International, West Conshohocken, Pa. (1996). Sucrose solutions of different concentrations were prepared in water. A naringenin (AuNutra Industries Inc) solution was also prepared in water (100 ppm) and used in all of the following examples. Each test group contained 26 paired samples. In each paired samples, a sucrose solution of a higher concentration was compared for sweetness against that of a lower concentration but in combination with naringenin. The results were represented by the numbers of samples rated as sweeter in paired comparisons, which were then statistically analyzed using binomial distribution for two-sided comparisons at 95% confidence level.

[4] = cited from earlier work; remark: listed apart in the source
[5] = Sweetness enhancement of artificial sweetener acesulfame potassium by naringenin; type: in vivo, human; conditions: acesulfame potassium (120 ppm), naringenin 100 ppm
Procedure: (§1) Sucrose solutions of different concentrations were prepared in water. A naringenin (AuNutra Industries Inc) solution was also prepared in water (100 ppm) and used in all of the following examples. In addition, the sweetness enhancement of (i) sucralose (40 ppm), (ii) aspartame (120 ppm) and (iii) acesulfame potassium (120 ppm) by naringenin was also evaluated, respectively.

[6] = Sweetness enhancement of artificial sweetener aspartame by naringenin; type: in vivo, human; conditions: aspartame (120 ppm), naringenin 100 ppm
Procedure: as §1

[7] = Flavor profile of non-fat plain yogurt with 5% sucrose plus naringenin of different concentrations; type: in vivo, human
Procedure: A Danone Non-Fat Plain Yogurt with 5% sucrose was prepared and used as the base. Different amount of naringenin was added to the base to obtain naringenin samples of a series of concentrations ranging from 10 to 1000 ppm.

[8] = Sweetness enhancement of artificial sweetener sucralose by naringenin; type: in vivo, human; conditions: sucralose (40 ppm), naringenin 100 ppm
Procedure: as §1

[9] = Paired comparison of sweetness, sucrose & Reb A combination with or without naringenin; type: in vivo, human
Excerpt: The term “sweetness” or “sweetness intensity” is understood to mean the relative strength of sweet sensation as observed or experienced by an individual, e.g., a human, or a degree or amount of sweetness detected by a taster, for example on the scale from 0 (none) to 8 (very strong) used in sensory evaluations according to the procedure described in American Society for Testing Materials, Special Technical Publication-434: “Manual on Sensory Testing Methods,” ASTM International, West Conshohocken, Pa. (1996). Sucrose solutions of different concentrations were prepared in water. A naringenin (AuNutra Industries Inc) solution was also prepared in water (100 ppm) and used in all of the following examples. Each test group contained 26 paired samples. In each paired samples, a sucrose solution of a higher concentration was compared for sweetness against that of a lower concentration but in combination with naringenin. The results were represented by the numbers of samples rated as sweeter in paired comparisons, which were then statistically analyzed using binomial distribution for two-sided comparisons at 95% confidence level. The evaluation is reported in the following: The sweetness enhancement of sucrose & Reb A combination by naringenin was also evaluated.

[10] = Flavor profile of Reb A water solution (10 ppm) plus naringenin of different concentrations; type: in vivo, human
Procedure: A Reb A water solution (10 ppm) was prepared and used as the base. Different amount of naringenin was added to the base to obtain naringenin samples of a series of concentrations ranging from 10 to 1000 ppm.

[11] = pair Sucrose (0.5%) vs Naringenin (100 ppm in water), p 0.40

## C=C1C[C@@]23CC[C@H]4[C@@](C)(CCC[C@@]4(C)C(=O)O[C@@H]4O[C@H](CO)[C@@H](O)[C@H](O)[C@H]4O)[C@@H]2CC[C@]1(O[C@@H]1O[C@H](CO)[C@@H](O)[C@H](O[C@@H]2O[C@H](CO)[C@@H](O)[C@H](O)[C@H]2O)[C@H]1O[C@@H]1O[C@H](CO)[C@@H](O)[C@H](O)[C@H]1O)C3 [Reb A, rebaudioside A, reference compound]
[1]; pair 140 ppm Reb A vs 100 ppm Reb A + Naringenin (100 ppm), p 0.05, significant
  Number of Samples Rated Sweeter: 19
[1]; pair Reb A (120 ppm) vs Reb A (120 ppm) + Naringenin (100 ppm), p 0.01, significant
  Number of Samples Rated Sweeter: 5

## O=C1CC(c2ccc(O)cc2)Oc2cc(O)cc(O)c21 (centres unmarked) [Naringenin, 2,3-dihydro-5,7-dihydroxy-2-(4-hydroxyphenyl)-4H-1-benzopyran-4-one]
[2]; in aqueous solutions
  solubility: sparingly soluble
[2]; in ethanol, ether, oils (e.g., olive oil or citrus oil) and supercritical carbon dioxide
  solubility: soluble
[1]; naringenin 100 ppm
  enhancement of Reb A sweetness: significantly enhanced
[1]; naringenin 100 ppm with 100 ppm Reb A, ppm of Reb A
  enhancement compared with that provided by additional Reb A: < 40 ppm
[3]; naringenin 100 ppm in combination with a 4% sucrose solution
  sweetness enhanced to a level of a sucrose solution: 4.8%
[3]; naringenin 100 ppm in water alone
  intrinsic sweetness, approximate level of a sucrose solution: ~0.5%
[3]; naringenin 100 ppm with 4% sucrose solution
  enhancement of sucrose sweetness: more than an additive effect
[3]; [11]
  Number of Samples Rated Sweeter: 16
[4]; U.S. Publication No. 2009/0004360
  aftertaste modifier effect: decreases the perception of bitterness or undesirable flavor
[4]; in vivo
  taste of naringenin itself: weak to no sweet taste
[4]; tested up to a concentration of 10 ppm, U.S. Publication No. 2014/0170082
  taste and flavor performance: exhibits bitterness and unpleasant aftertaste, and performs poorly on flavor
[5]
  sweetness enhancement: enhanced sweetness with an impact up front
[6]
  sweetness enhancement: enhanced sweetness with an impact up front
[7]; Sample 2, naringenin 10 ppm in yogurt with 5% sucrose
  Flavor Profile: Same as the base
[7]; Sample 3, naringenin 50 ppm in yogurt with 5% sucrose
  Flavor Profile: Minor increase in sweetness
[7]; Sample 4, naringenin 75 ppm in yogurt with 5% sucrose
  Flavor Profile: Slightly more increase in sweetness
[7]; Sample 5, naringenin 100 ppm in yogurt with 5% sucrose
  Flavor Profile: Clear increase in sweetness
[7]; Sample 6, naringenin 250 ppm in yogurt with 5% sucrose
  Flavor Profile: More intense and full-body sweetness
[7]; Sample 7, naringenin 500 ppm in yogurt with 5% sucrose
  Flavor Profile: Full-body sweetness with good impact
[7]; yogurt with 5% sucrose
  concentration at which naringenin exhibited sweetness enhancement: ≥ 50 ppm
  concentration at which undesirable off-notes developed: 1000 ppm
[8]
  sweetness enhancement: enhanced sweetness with an impact up front
[9]; naringenin 100 ppm
  enhancement of the sweetness of sucrose & Reb A combination: significantly enhanced
[9]; naringenin 100 ppm with Reb A (10 ppm) + Sucrose (4%), ppm of Reb A
  enhancement compared with that achieved by Reb A: > 20 ppm
[10]; Reb A water solution (10 ppm)
  concentration at which naringenin exhibited sweetness enhancement: ≥ 50 ppm
  concentration at which undesirable off-notes developed: 750 ppm
[10]; Sample 2, naringenin 10 ppm in Reb A water solution (10 ppm)
  Flavor Profile: Same as that of the base
[10]; Sample 3, naringenin 50 ppm in Reb A water solution (10 ppm)
  Flavor Profile: Very minor increase in sweetness
[10]; Sample 4, naringenin 75 ppm in Reb A water solution (10 ppm)
  Flavor Profile: Slightly more increase in sweetness
[10]; Sample 5, naringenin 100 ppm in Reb A water solution (10 ppm)
  Flavor Profile: Clear increase in sweetness with an impact up
[10]; Sample 6, naringenin 250 ppm in Reb A water solution (10 ppm)
  Flavor Profile: Intense sweetness with a stronger impact up
[10]; Sample 7, naringenin 500 ppm in Reb A water solution (10 ppm)
  Flavor Profile: Intense sweetness with a strong impact up front
[10]; Sample 8, naringenin 750 ppm in Reb A water solution (10 ppm)
  Flavor Profile: More intense sweetness with increased waxy

## OC[C@H]1O[C@@](CO)(O[C@H]2O[C@H](CO)[C@@H](O)[C@H](O)[C@H]2O)[C@@H](O)[C@@H]1O [Sucrose, sucrose, reference compound]
[3]; [11]
  Number of Samples Rated Sweeter: 10
[3]; pair Sucrose (4.4%) vs Sucrose (4%) + Naringenin (100 ppm), p 0.01, significant
  Number of Samples Rated Sweeter: 6
[3]; pair Sucrose (4.8%) vs Sucrose (4%) + Naringenin (100 ppm), p >0.40
  Number of Samples Rated Sweeter: 14
